What was measured:
Experiment in all cases: Example 1: quantification of 4M3H on cotton fabric with 14-methylhexadecanoic acid
R. muculaginosa NBRC0909 = format: cell-based, Rhodotorula mucilaginosa; settings: 37° C., 24 hours, vs sterilized water
Procedure: (§1) 10 mL of methanol was added to the towel that had been left to stand still for 24 hours, and 1 mL of the methanol was mixed with 1 mL of ADAM (9-anthrydiazomethanene, manufactured by Funakoshi Corp., 0.1 w/v %). The mixture was left to stand for 60 minutes at room temperature, and thus derivatization was carried out.
(§2) Thereafter, 10 μL of the solution was analyzed by using LC-FL (liquid chromatography apparatus: HITACHI ELITE LaChrom (trade name, manufactured by Hitachi, Ltd.), column: Lichrosphere 100 RP-8(e) (trade name, manufactured by Agilent Technologies, Inc., 5 μm×125 mm×4 mmφ), column temperature: 40° C., eluent a mixed solution of acetonitrile/water=7/3 (volume ratio), flow rate: 1.0 mL/min, detector: excitation wavelength (365 nm), measurement wavelength (412 nm)), and thereby quantification of 4M3H thus produced was carried out. In regard to the amount of production of 4M3H, a sample which produced 4M3H in an amount of more than 1 μg was rated as “[…]”; a sample which produced 4M3H in an amount of more than 0.1 μg and 1 μg or less was rated as “∘”; a sample which produced 4M3H in an amount of more than 0 μg and 0.1 μg or less was rated as “Δ”; and a sample in which no 4M3H was detected was rated as “x”.
(§3) One platinum loop of each of Moraxella osloensis NCIMB10693, Moraxella sp. 4-1, Psychrobacter pacificensis NBRC103191, Psychrobacter glacincola NCIMB101053, Pseudomonas alcaligenes No. 41, Acinetobacter calcoaceticus HH2BD-49, Saccaromyces cerevisiae NBRC1661, Rhodotorula mucilaginosa NBRC0909 and Rhodotorula slooffiae 13c was inoculated into 5 mL of a SCD liquid medium (manufactured by Nihon Pharmaceutical Co., Ltd.), and the microbial cells were subjected to shaking culture (160 rpm) at 35° C. for 24 hours. The microbial cells obtained after culture were centrifuged (8000×g, 10 minutes), the supernatant was removed, and then the microbial cells were suspended in 5 mL of physiological saline. The suspension was centrifuged again (8000×g, 10 minutes), subsequently the supernatant was removed, and a microbial suspension was prepared by using physiological saline such that the OD600 would be 0.1.
(§4) Furthermore, 0.1 mL each of 10-ppm or 100-ppm aqueous solutions of the compounds shown in the following Table 6 was applied on the fabric described above. As a control, a fabric on which sterilized water was applied instead of the compounds described below was also prepared.
(§5) On a plain-woven cotton fabric prepared as described above, 0.1 mL each of the various microbial suspensions was inoculated, and the samples were left to stand still under humidified conditions at 37° C. for 24 hours and were subjected to an evaluation such as described below.
(§6) Quantification of 4M3H was carried out by the same method as that used in Test Example 3, and by taking as a reference the 4M3H production amount of a sample on which sterilized water was applied as a test substance, the 4M3H production amounts in the case of applying other test substances were evaluated on the basis of the following criteria. • A: (4M3H production amount in the case of applying a test substance)<( 1/100 of the 4M3H production amount in the case of applying sterilized water) • B: ( 1/100 of the 4M3H production amount in the case of applying sterilized water)≦(4M3H production amount in the case of applying a test substance)<( 1/10 of the 4M3H production amount in the case of applying sterilized water) • C: ( 1/10 of the 4M3H production amount in the case of applying sterilized water)≦(4M3H production amount in the case of applying a test substance)<(4M3H production amount in the case of applying sterilized water) • D: (4M3H production amount in the case of applying sterilized water)≦(4M3H production amount in the case of applying a test substance)

P. glacincola NBRC101053 = format: cell-based, Psychrobacter glacincola; settings: 37° C., 24 hours, vs sterilized water
Procedure: as §1, §2, §3, §4, §5, §6

M. osloensis NCIMB10693 = format: cell-based, Moraxella osloensis; settings: M. osloensis NCIMB10693, cotton fabric with 14-methylhexadecanoic acid, 37° C., 24 hours, vs sterilized water
Procedure: as §1, §2, §3, §4, §5, §6

R. slooffiae 13c = format: cell-based, Rhodotorula slooffiae; settings: 37° C., 24 hours, vs sterilized water
Procedure: as §1, §2, §3, §4, §5, §6

P. alcaligenes No. 41 = format: cell-based, Pseudomonas alcaligenes; settings: 37° C., 24 hours, vs sterilized water
Procedure: as §1, §2, §3, §4, §5, §6

[1] = tested on: A. calcoaceticus HH2BD-49; format: cell-based, Acinetobacter calcoaceticus; settings: 37° C., 24 hours, vs sterilized water
Procedure: as §1, §2, §3, §4, §5, §6

Moraxella sp. 4-1 = format: cell-based; settings: 37° C., 24 hours, vs sterilized water
Procedure: as §1, §2, §3, §4, §5, §6

S. cerevisiae NBRC1661 = format: cell-based, Saccaromyces cerevisiae; settings: 37° C., 24 hours, vs sterilized water
Procedure: as §1, §2, §3, §4, §5, §6

[2] = tested on: P. pacificensis NBRC103191; format: cell-based, Psychrobacter pacificensis; settings: 37° C., 24 hours, vs sterilized water
Procedure: as §1, §2, §3, §4, §5, §6

## CN(C)c1ccc(/C([S-])=C(/[S-])c2ccccc2)cc1.CN(C)c1ccc(/C([S-])=C(/[S-])c2ccccc2)cc1.[Ni] [Bis(4-dimethylaminodithiobenzil)nickel]
R. muculaginosa NBRC0909; 10 ppm test substance
  Production amount of 4M3H: B (( 1/100 of the 4M3H production amount in the case of applying sterilized water)≦(4M3H production amount in the case of applying a test substance)<( 1/10 of the 4M3H production amount in the case of applying sterilized water))
R. muculaginosa NBRC0909; 100 ppm test substance
  Production amount of 4M3H: A ((4M3H production amount in the case of applying a test substance)<( 1/100 of the 4M3H production amount in the case of applying sterilized water))
P. glacincola NBRC101053; 10 ppm test substance
  Production amount of 4M3H: A ((4M3H production amount in the case of applying a test substance)<( 1/100 of the 4M3H production amount in the case of applying sterilized water))
P. glacincola NBRC101053; 100 ppm test substance
  Production amount of 4M3H: A ((4M3H production amount in the case of applying a test substance)<( 1/100 of the 4M3H production amount in the case of applying sterilized water))
M. osloensis NCIMB10693; 10 ppm test substance
  Production amount of 4M3H: C (( 1/10 of the 4M3H production amount in the case of applying sterilized water)≦(4M3H production amount in the case of applying a test substance)<(4M3H production amount in the case of applying sterilized water))
M. osloensis NCIMB10693; 100 ppm test substance
  Production amount of 4M3H: A ((4M3H production amount in the case of applying a test substance)<( 1/100 of the 4M3H production amount in the case of applying sterilized water))
R. slooffiae 13c; 10 ppm test substance
  Production amount of 4M3H: C (( 1/10 of the 4M3H production amount in the case of applying sterilized water)≦(4M3H production amount in the case of applying a test substance)<(4M3H production amount in the case of applying sterilized water))
R. slooffiae 13c; 100 ppm test substance
  Production amount of 4M3H: A ((4M3H production amount in the case of applying a test substance)<( 1/100 of the 4M3H production amount in the case of applying sterilized water))
P. alcaligenes No. 41; 10 ppm test substance
  Production amount of 4M3H: C (( 1/10 of the 4M3H production amount in the case of applying sterilized water)≦(4M3H production amount in the case of applying a test substance)<(4M3H production amount in the case of applying sterilized water))
P. alcaligenes No. 41; 100 ppm test substance
  Production amount of 4M3H: A ((4M3H production amount in the case of applying a test substance)<( 1/100 of the 4M3H production amount in the case of applying sterilized water))
[1]; 10 ppm test substance
  Production amount of 4M3H: B (( 1/100 of the 4M3H production amount in the case of applying sterilized water)≦(4M3H production amount in the case of applying a test substance)<( 1/10 of the 4M3H production amount in the case of applying sterilized water))
[1]; 100 ppm test substance
  Production amount of 4M3H: A ((4M3H production amount in the case of applying a test substance)<( 1/100 of the 4M3H production amount in the case of applying sterilized water))
Moraxella sp. 4-1; 10 ppm test substance
  Production amount of 4M3H: B (( 1/100 of the 4M3H production amount in the case of applying sterilized water)≦(4M3H production amount in the case of applying a test substance)<( 1/10 of the 4M3H production amount in the case of applying sterilized water))
Moraxella sp. 4-1; 100 ppm test substance
  Production amount of 4M3H: A ((4M3H production amount in the case of applying a test substance)<( 1/100 of the 4M3H production amount in the case of applying sterilized water))
S. cerevisiae NBRC1661; 10 ppm test substance
  Production amount of 4M3H: C (( 1/10 of the 4M3H production amount in the case of applying sterilized water)≦(4M3H production amount in the case of applying a test substance)<(4M3H production amount in the case of applying sterilized water))
S. cerevisiae NBRC1661; 100 ppm test substance
  Production amount of 4M3H: A ((4M3H production amount in the case of applying a test substance)<( 1/100 of the 4M3H production amount in the case of applying sterilized water))
[2]; 10 ppm test substance
  Production amount of 4M3H: C (( 1/10 of the 4M3H production amount in the case of applying sterilized water)≦(4M3H production amount in the case of applying a test substance)<(4M3H production amount in the case of applying sterilized water))
[2]; 100 ppm test substance
  Production amount of 4M3H: B (( 1/100 of the 4M3H production amount in the case of applying sterilized water)≦(4M3H production amount in the case of applying a test substance)<( 1/10 of the 4M3H production amount in the case of applying sterilized water))

Reference: patent publication US20130210061A1, “Method of Screening Damp-Dry Malodor Inhibitor and Method of Evaluating Damp-Dry Malodor Inhibitor” (KAO CORPORATION, priority 2010, published 2013)
